Test results published in patent publication US20260209483A1, “RUBBER COMPOSITIONS COMPRISING ANTIDEGRADANTS” (FLEXSYS AMERICA L.P., priority 2022, published 2026).

assay: Oxidative induction time (OIT) by DSC, compound mixed with polyisoprene; details: 0.5 wt % compound mixed with polyisoprene, isothermal 160 °C in O2, DSC; blank 1-2 minutes
Procedure: OIT is measured according to a procedure carried out in a differential scanning calorimeter (TA Instruments, Q200), also knows as DSC, and is used to predict thermo-oxidative performance of a material. In this procedure, each sample is held in a sample cell and heated under a nitrogen atmosphere to a preselected temperature.
0.5 wt % of a Compound of the Disclosure, or no antidegradant (blank) was mixed with polyisoprene and heated isothermally at 160° C. in O2.

Row | Structure (SMILES) | Peak time of OIT testing
1 | CC1=CC(C)(C)Nc2ccc(Cc3ccc4c(c3)C(C)=CC(C)(C)N4)cc21 [Compound 1-A, bis(2,2,4-trimethyl-1,2-dihydroquinolin-6-yl) methane] | 4.8 min
2 | CC1=CC(C)(C)Nc2c(C)cc(Nc3ccccc3)cc21 [Compound 1-B, 2,2,4,8-tetramethyl-N-phenyl-1,2-dihydroquinolin-6-amine] | 15.2 min
3 | CCC(C)Nc1ccc2[nH]ccc2c1 (stereo not shown) [Compound 1-C, N-(sec-butyl)-1H-indol-5-amine] | 19.2 min
4 | CC(C)CCC(C)Nc1ccc(NC(C)CCC(C)C)nc1 (stereo not shown) [Compound 1-E, N^2,N^5-bis(5-methylhexan-2-yl)pyridine-2,5-diamine] | 11.1 min
5 | Cc1cc(NC(C)C)cc2c1NCCC2(C)c1ccccc1 (stereo not shown) [Compound 1-F, N-isopropyl-4,8-dimethyl-4-phenyl-1,2,3,4-tetrahydroquinolin-6-amine] | 20.3 min
6 | CC1=CC(C)(C)Nc2ccc(NCc3ccco3)cc21 [Compound 1-H, N-(furan-2-ylmethyl)-2,2,4-trimethyl-1,2-dihydroquinolin-6-amine] | 10.7 min
7 | CC1=CC(C)(C)Nc2c1ccc(NC(C)CC(C)C)c2C (stereo not shown) [Compound 1-J, 2,2,4,8-tetramethyl-N-(4-methylpentan-2-yl)-1,2-dihydroquinolin-7-amine] | 2.6 min
8 | CC1CC(C)(C)Nc2ccc(Cc3ccc4c(c3)C(C)CC(C)(C)N4)cc21 (stereo not shown) [Compound 2-A, bis(2,2,4-trimethyl-1,2,3,4-tetrahydroquinolin-6-yl) methane] | 10.8 min
9 | Cc1cc(Nc2ccccc2)cc2c1NC(C)(C)CC2C (stereo not shown) [Compound 2-B, 2,2,4,8-tetramethyl-N-phenyl-1,2,3,4-tetrahydroquinolin-6-amine] | 17.8 min
10 | CCC(C)Nc1ccc2c(c1)CCN2 (stereo not shown) [Compound 2-C, N-(sec-butyl) indolin-5-amine] | 14.1 min
11 | CCC(CC)Nc1cc(C)c2c(c1)C(C)(c1ccccc1)CCN2 (stereo not shown) [Compound 2-F, 4,8-dimethyl-N-(pentan-3-yl)-4-phenyl-1,2,3,4-tetrahydroquinolin-6-amine] | 17.4 min
12 | Cc1c(NC(C)C)ccc2c1NCCC2(C)c1ccccc1 (stereo not shown) [Compound 2-J, N-isopropyl-4,8-dimethyl-4-phenyl-1,2,3,4-tetrahydroquinolin-7-amine] | 15.6 min
13 | CC(C)Nc1ccc(C(c2ccc(NC(C)C)cc2)c2ccco2)cc1 [Compound 3-A, 4,4′-(furan-2-ylmethylene)bis(N-isopropylaniline)] | 5.9 min
14 | Cc1cc(NC(C)C)cc2c1NC(c1ccccc1)CC2(C)c1ccccc1 (stereo not shown) [Compound 3-F, N-isopropyl-4,8-dimethyl-2,4-diphenyl-1,2,3,4-tetrahydroquinolin-6-amine] | 43.8 min
15 | CCOC(=O)C1=CC(C)(C(=O)OCC)Nc2ccc(Nc3ccccc3)cc21 (stereo not shown) [Compound 3-H, diethyl 2-methyl-6-(phenylamino)-1,2-dihydroquinoline-2,4-dicarboxylate] | 12.9 min
16 | Cc1cc(NC(C)C)cc2c1NC(C(C)C)CC2(C)c1ccccc1 (stereo not shown) [Compound 4-F, N,2-diisopropyl-4,8-dimethyl-4-phenyl-1,2,3,4-tetrahydroquinolin-6-amine] | 19.6 min
17 | c1coc(CNc2ccc(C(c3ccc(NCc4ccco4)cc3)c3ccco3)cc2)c1 [Compound 7-A, 4,4′-(furan-2-ylmethylene)bis(N-(furan-2-ylmethyl)aniline)] | 4.1 min

Row | Structure (SMILES) | Peak time of OIT testing
18 | COc1cc(Nc2ccccc2)cc2c1NC(C)(C)C=C2C [Compound 7-B, 8-methoxy-2,2,4-trimethyl-N-phenyl-1,2-dihydroquinolin-6-amine] | 31.0 min
19 | COC1=CC(=Nc2ccccc2)C=C2C(C)=CC(C)(C)N=C12 [Compound 7-D, 8-methoxy-2,2,4-trimethyl-N-phenylquinolin-6(2H)-imine] | 24.6 min
20 | c1coc(CNc2ccc(Cc3ccc(NCc4ccco4)cc3)cc2)c1 [Compound 8-A, 4,4′-methylenebis(N-(furan-2-ylmethyl)aniline)] | 2.9 min
21 | CC(C)Nc1ccc(Sc2ccc(NC(C)C)cc2)cc1 [Compound 11-A] | 2.5 min
22 | CC(C)Nc1ccc(C(c2ccccc2)c2ccc(NC(C)C)cc2)cc1 [Compound 16-A, 4,4′-(phenylmethylene)bis(N-isopropylaniline)] | 6.6 min
23 | CC(C)Nc1ccc(Cc2ccc(NC(C)C)cc2)cc1 [Compound 19-A, 4,4′-methylenebis(N-isopropylaniline)] | 2.7 min
24 | CC(Nc1ccc2[nH]ccc2c1)c1ccccc1 (stereo not shown) [Compound 19-C, N-(1-phenylethyl)-1H-indol-5-amine] | 6.9 min
25 | CC(Nc1ccc(Cc2ccc(NC(C)c3ccco3)cc2)cc1)c1ccco1 (stereo not shown) [Compound 20-A, 4,4′-methylenebis(N-(1-(furan-2-yl)ethyl)aniline)] | 2.3 min
26 | CC(Nc1ccc(Cc2ccc(NC(C)c3ccccc3)cc2)cc1)c1ccccc1 (stereo not shown) [Compound 21-A, 4,4′-methylenebis(N-(1-phenylethyl)aniline)] | 2.6 min
27 | CC(C)Nc1ccc(Oc2ccc(NC(C)C)cc2)cc1 [Compound 27-A] | 4.2 min
28 | CC1=CC(C)(C)Nc2cc3c(cc21)NC(C)(C)C=C3C [Compound 32-H, 2,2,4,7,7,9-hexamethyl-1,2,6,7-tetrahydropyrido[2,3-g]quinoline] | 6.6 min
29 | CC1CC(C)(C)Nc2cc3c(cc21)NC(C)(C)CC3C (stereo not shown) [Compound 33-H, 2,2,4,7,7,9-hexamethyl-1,2,3,4,6,7,8,9-octahydropyrido[2,3-g]quinoline] | 8.3 min
30 | Cc1cc(NC(C)C)cc2c1NCC(C)(C)C2 [Compound 47-F, N-isopropyl-3,3,8-trimethyl-1,2,3,4-tetrahydroquinolin-6-amine] | 3.2 min
31 | Cc1cc(NC(C)c2ccccc2)cc2c1NC(C)(C)CC2 (stereo not shown) [Compound 119-B, 2,2,8-trimethyl-N-(1-phenylethyl)-1,2,3,4-tetrahydroquinolin-6-amine] | 21.9 min
32 | CCOC(=O)C1=CC(C)(C(=O)OCC)Nc2c(C)cc(Nc3ccccc3)cc21 (stereo not shown) [Compound 120-B, diethyl 2,8-dimethyl-6-(phenylamino)-1,2-dihydroquinoline-2,4-dicarboxylate] | 11.5 min
33 | CC1=CC(C)(C)Nc2ccc(Sc3ccc4c(c3)C(C)=CC(C)(C)N4)cc21 [Compound 153-A, bis(2,2,4-trimethyl-1,2-dihydroquinolin-6-yl)sulfane] | 5.8 min
34 | Cc1cc(Cc2cc(C)c(NC(C)C)c(C)c2)cc(C)c1NC(C)C [Compound 154-A, 4,4′-methylenebis(N-isopropyl-2,6-dimethylaniline)] | 1.5 min
